How the values were obtained:
[1] = 101 kPa, Liquid, Sing-around technique in a fixed-path interferometer
[2] = mn = molality of the nth substance listed, in mol/kg; settings: 101 kPa, Liquid; for speed of sound: Sing-around technique in a fixed-path interferometer; for mass density: Vibrating tube method

O [water]
[1]
Settings | speed of sound [m/s]
288.15 K | 1463.1
298.15 K | 1495.8
308.15 K | 1519.1

O=C([O-])CC(O)(CC(=O)[O-])C(=O)[O-].[Na+].[Na+].[Na+] [trisodium citrate] + O
[2]
Settings | mass density, 288.15 K [kg/m3] | mass density, 298.15 K [kg/m3] | mass density, 308.15 K [kg/m3] | mass density, 318.15 K [kg/m3] | speed of sound, 288.15 K [m/s] | speed of sound, 298.15 K [m/s] | speed of sound, 308.15 K [m/s] | speed of sound, 318.15 K [m/s]
m1 = 0.2 | 1034.67 | 1031.98 | 1028.5 | 1024.36 | 1508 | 1536 | 1556.9 | 1571.8
m1 = 0.4 | 1071.21 | 1067.93 | 1064.13 | 1059.23 | 1552.2 | 1577.5 | 1595.8 | 1608.3
m1 = 0.6 | 1104.43 | 1100.68 | 1096.96 | 1092.26 | 1591.5 | 1614 | 1630.3 | 1641.2
m1 = 0.8 | 1137.97 | 1133.93 | 1129.43 | 1124.5 | 1634 | 1653.8 | 1667.3 | 1676.2

Reference: the NIST ThermoML archive (doi:10.1016/j.jct.2013.08.010)
